Laboratory results as given in patent US20200061155A1, “COMPOSITIONS AND METHODS FOR TREATING LYNX2 DISORDERS” (OPHIDION, INC, priority 2017, published 2020).

Assays:
[1] = system: basolateral amygdalar neurons of lynx2KO mice; assay: spike timing dependent plasticity (post-pre stimulation), EPSC amplitude, perforated patch-clamp; type: cell-based, mouse; conditions: 10 μM DHPG for 15 min; lynx2KO neurons (FIG. 8E)
Description: Spike timing (i.e., Δt in ms) was determined between the onset of the EPSP and the peak of the AP. […] Post-pre stimulation was given tp determine the level of LTD. x-axis is time in minutes, y axis is EPSC amplitude, normalized and presented as a percentage (baseline set to 100). Baseline is EPSC amplitude before post-pre stimulation.
For activation of mGluR receptor with DHPG (FIG. 8E) in a spike-timing dependent paradigm (post-pre stimulation) to elicit LTD. For exploration of the mechanism of anti-Hebbian LTP, mGluR5 agonist DHPG (10 μM, Tocris Bioscience, Bristol, UK) was administered for 15 min when the baseline recorded at least 10 min. […] Baseline is EPSC amplitude before post-pre stimulation.
Pairings were repeated 100 times. Pre-post (spike timings as positive) was set as a 1 EPSP/1 AP pairing (100 repeats at 1 Hz) or post-pre (spike timing as negative) with either 1 AP/1 EPSP pairing (100 repeats at 1 Hz). Spike timing (i.e., Δt in ms) was determined between the onset of the EPSP and the peak of the AP.

[2] = system: brain slices from lynx2 knockout (KO) mice; assay: long term depression (LTD) of evoked fEPSPs in brain slices after theta pulse stimulation; type: cell-based, mouse; conditions: ACSF with 20 mM methyllycaconitine; lynx2KO slices; theta pulse stimulation (FIG. 4D)
Description: FIG. 4D is a graph of stimulating electrode traces from long term depression (LTD) experiments using extracellular recordings for evoked field excitatory post-synaptic potentials (fEPSPs) in […] (EC) brain slices in ACSF solution with […] methyllycaconitine (MLA) from lynx2 knockout (KO) mice before (left of zero minutes) and after (right of zero minutes) theta pulse stimulations (TSP), according to embodiments of the present invention.
Field excitatory postsynaptic potentials (fEPSPs) were evoked by 0.05 Hz test stimulus though a bipolar stimulating electrode placed on external Capsule (EC), and a glass pipette as recording electrode was filled with ACSF and placed in BLA. […] Access resistances were continuously monitored and neurons with more than 20% change of series resistance were excluded from data analysis.
The plasticity ratio was calculated from the average EPSP amplitude of the last 10 mins of baseline recording and the last 15 mins after high frequency or low stimulus, for LTP and LTD studies, respectively. […] For all experiments, treatment effects were analyzed with one-way ANOVA, followed by the appropriate post hoc tests. […]

lynx2KO mice [3] = assay: light dark box experiment (latency to enter dark enclosed environment); type: in vivo, mouse; conditions: lynx2KO mice under chronic stress with mec vs lynx2KO mice without mec (FIG. 2A)
Source text: FIG. 2A is a graph of the time in seconds (latency) for wild type (WT) (black bars) or lynx2 knock out (KO) (white bars) mice to enter a dark enclosed environment under conditions of saline, chronic stress, or chronic stress with administration of mecamylamine (mec) as indicated, according to embodiments of the present invention.

lynx2KO mice [4] = assay: fear extinction experiment (noise previously paired with electric shock); type: in vivo, mouse; conditions: lynx2KO mice with mec vs lynx2KO mice without mec (FIGS. 2B-2C)
Description: FIG. 2B is a graph of fear observed in wild type (black circles) and lynx2KO mice (white triangles) after fear training (an electric shock depicted in yellow) associated with a noise for 24 hours followed by the same noise without the shock to measure the mouse's capability to lose the fear, according to embodiments of the present invention.
FIG. 2C is a graph of fear observed in lynx2KO mice during the fear extinction experiment of FIG. 2B with a group of lynx2KO mice receiving mecamylamine (mec), according to embodiments of the present invention.

NC(C(=O)O)c1cc(O)cc(O)c1 (stereo not shown) [DHPG, 3,5-dihydroxyphenylglycine]
synaptic plasticity (EPSC amplitude after post-pre stimulation) [1]: restores the abnormal synaptic plasticity in the lynx2KO neurons to normal levels

CCN1C[C@]2(COC(=O)c3ccccc3N3C(=O)C[C@H](C)C3=O)CC[C@H](OC)[C@@]34[C@@H]5C[C@H]6[C@H](OC)[C@@H]5[C@](O)(C[C@@H]6OC)[C@@](O)([C@@H](OC)[C@H]23)[C@@H]14 [methyllycaconitine]
induced long term depression (LTD) of fEPSPs [2]: able to rescue induced long term depression (LTD)

CNC1(C)C2CCC(C2)C1(C)C (stereo not shown) [mecamylamine]
latency to dark (lynx2KO mice [3]): increased latency to dark
ability to unlearn a fear associated with a noise (fear extinction) (lynx2KO mice [4]): increased ability to unlearn a fear associated with a noise
